Experimental data reported in US8956445B2, “High stability diionic liquid salts” (Sigma-Aldrich Co., priority 2004, dated 2015).
Like-named read-outs stand apart in the source and are kept apart here.

Tests used:
[1] = Refractive index (Abbe-3L refractometer); type: physicochemical; conditions: 23° C.
Protocol: (§1) The densities of the ionic liquids or, more correctly, […] (used synonymously except as indicated otherwise explicitly or by context) was determined at 23° C. by placing 2.0 mL of the ionic liquid in a 2.0 mL volumetric tube and weighing by difference. The melting points of the ionic liquids were determined using a Perkin Elmer Pyris 1 Differential Scanning calorimeter (Boston, Mass.). Typical methods involved using a 10° C./min temperature ramp to determine and identify the first and second order thermal transitions. […] For solid compounds, the melting points were verified using a capillary melting point apparatus. Refractive index measurements were conducted at 23° C. using a Bausch & Lomb Abbe-3L refractometer.

[2] = Density (2.0 mL volumetric tube, weighing by difference); type: physicochemical; conditions: 23° C.
Protocol: as §1

[3] = Surface tension (DuNuoy Tensiometer); type: physicochemical; conditions: room temperature (23° C.)
[4] = Solvation thermodynamics of probe molecules (van't Hoff plots, GC); type: physicochemical
Excerpt: Solvation thermodynamics can be determined chromatographically by recognizing that the Gibbs free energy change, ΔG°, of a solute between the mobile phase and the stationary phase can be described by equation 1:
[formula] where k is the solute retention factor and Φ is the column phase ratio. An expression shown in equation 2 can then be derived and illustrates the dependence of enthalpy, ΔH°, and entropy, ΔS°, on the change of the retention factor with temperature:
[formula] A van't Hoff plot of ln k versus 1/T provides the entropy (intercept) and enthalpy (slope) and describes a solute's transfer from the gas phase to the ionic liquid stationary phase. In this work, the solvation thermodynamics were determined for seven different probe molecules, listed in Table D, on two cross-linked ionic liquid phases and one ionic liquid stationary phase. […] For each probe molecule on each stationary phase, three separate van't Hoff plots were constructed so that changes in the probe molecule retention factor could be used to provide an error for each thermodynamic parameter. The probe molecule retention factors were determined at six different temperatures to obtain the highest possible correlation coefficient (>0.989).
(§2) Test solutes used to determine interaction parameters and solvation thermodynamics were dissolved in dichloromethane. A Hewlett-Packard model 5890 gas chromatograph and a Hewlett-Packard 6890 series integrator were used for all separations. Split injection and flame ionization detection were utilized with injection and detection temperatures of 250° C. Helium was used as the carrier gas with a column inlet pressure of 3.1 psi and flow rate of 1.0 mL/min. Methane was used to determine the dead volume of the column. Multiple linear regression analysis and statistical calculations were performed using the program Analyze-it (Microsoft).

[5] = Solvation interaction parameters by inverse gas-liquid chromatography (Abraham solvation model); type: physicochemical
Protocol: The preparation of the capillary columns for inverse gas-liquid chromatographic analysis was performed using a previously described procedure.^31 All capillary columns had efficiencies between 2100 to 2500 plates/meter. Characterization of the capillary columns and probe molecule descriptions are listed in supplemental information. Multiple linear regression analysis (MLRA) and statistical calculations were performed using the program Analyse-it (Microsoft, USA).
We have previously reported that the Abraham solvation model, a linear free energy approach that utilizes inverse gas-liquid chromatography to describe the solvation properties of a liquid, can be used to characterize room temperature ionic liquids.^31 Described by equation 1, the model provides the so-called “interaction parameters” (r, s, a, b, l) by using multiple linear regression analysis to fit the retention factor (k, determined chromatographically) to the solute descriptors (R2, π2^H, α2^H, β2^H, log L^16) for a wide variety of probe solute molecules. […] The solvation properties of four dicationic ionic liquids (see Table 4) were evaluated and the interaction parameters compared to those obtained for their traditional monocationic analogues 1-butyl-3-methylimidazolium and 1-butyl-1-methylpyrrolidinium ionic liquids.
Previously we characterized a large number of room temperature ionic liquids in terms of multiple solvation interactions using the solvation parameter model, shown in equation 3.^44 log k=c+rR2+sπ2^H+aα2^H+bβ2^H+l log L^16 [3] This approach utilizes inverse gas-liquid chromatography and allows the use of a large number of probe molecules to deconvolute solute retention in terms of the type and magnitude of individual solvation interactions. The solute descriptors (R2, π2^H, α2^H, β2^H, log L^16) from Equation 3 are obtained from the literature for many probe molecules containing a variety of functional groups.^45 The retention factor is determined chromatographically. The solute descriptors and retention factors are subjected to multiple linear regression analysis to obtain the interaction parameter coefficients (r, s, a, b, l), which ultimately characterize the stationary phase: r is the ability of the diionic liquid containing-stationary phase to interact with π and n electrons of the solute, s is a measure of the dipolarity/polarizability of the diionic liquid containing-stationary phase, a defines the diionic liquid containing-stationary phase hydrogen bond basicity, b is a measure of the hydrogen bond acidity, and/refers to the ability of the diionic liquid containing-stationary phase to separate adjacent members of a homologous series.^46
as §2

[6] = values taken from reference 31, cited from earlier work
[7] = probe 2-Chloroaniline, 40-100° C.
[8] = probe Ethyl Phenyl Ether, 35-75° C.

C=Cn1cc[n+](CCCCCCCCC[n+]2ccn(C=C)c2)c1.O=S(=O)([N-]S(=O)(=O)C(F)(F)F)C(F)(F)F.O=S(=O)([N-]S(=O)(=O)C(F)(F)F)C(F)(F)F [C9(vim)2-NTf2]
Refractive Index [1]: 1.457 | Density [2]: 1.47 g/mL

Cn1cc[n+](CCCCCCCCCCCC[n+]2ccn(C)c2)c1.F[B-](F)(F)F.F[B-](F)(F)F [C12(mim)2-BF4, 1,12-di(3-methylimidazolium)dodecane di-tetrafluoroborate]
Surface Tension [3]: 55.8 dynes/cm | Refractive Index [1]: 1.503 | Density [2]: 1.26 g/mL | Miscibility with Heptane: Immiscible | Miscibility with Water: Partially | Miscibility with Water (listed as 15): solubility of the salt in water decreases

Cc1n(C)cc[n+]1CCCCCCCCC[n+]1ccn(C)c1C.F[B-](F)(F)F.F[B-](F)(F)F [C9(m2im)2-BF4, 1,9-di(2,3-dimethylimidazolium)nonane di-tetrafluoroborate]
Surface Tension [3]: 58.1 dynes/cm | Refractive Index [1]: 1.456 | Density [2]: 1.31 g/mL | Miscibility with Heptane: Immiscible | Miscibility with Water: Miscible

CCCCn1cc[n+](CCCCCCCCC[n+]2ccn(CCCC)c2)c1.F[B-](F)(F)F.F[B-](F)(F)F [C9(bim)2-BF4, 1,9-di(3-butylimidazolium)nonane di-tetrafluoroborate]
Surface Tension [3]: 50.4 dynes/cm | Refractive Index [1]: 1.503 | Density [2]: 1.20 g/mL | Miscibility with Heptane: Immiscible | Miscibility with Water: Partially | Miscibility with Water (listed as 19): solubility of the salt in water decreases

Cn1cc[n+](CCCCCCCCCCCC[n+]2ccn(C)c2)c1.F[P-](F)(F)(F)(F)F.F[P-](F)(F)(F)(F)F [C12(mim)2-PF6, 1,12-di(3-methylimidazolium)dodecane di-hexafluorophosphate]
Surface Tension [3]: 53.4 dynes/cm | Refractive Index [1]: 1.436 | Density [2]: 1.36 g/mL | Miscibility with Heptane: Immiscible | Miscibility with Water: Immiscible

Cn1cc[n+](CCCCCCCCCCCC[n+]2ccn(C)c2)c1.O=S(=O)([N-]S(=O)(=O)C(F)(F)F)C(F)(F)F.O=S(=O)([N-]S(=O)(=O)C(F)(F)F)C(F)(F)F [C12(mim)2-NTf2, 1,12-di(3-methylimidazolium)dodecane di-bis[(trifluoromethyl)sulfonyl]imidate]
Surface Tension [3]: 42.3 dynes/cm | Refractive Index [1]: 1.443 | Density [2]: 1.40 g/mL | Miscibility with Heptane: Immiscible | Miscibility with Water: Immiscible

1-vinyl-3-hexylimidazolium bis[(trifluoromethane)sulfonyl]imidate [hvim-NTf2]
Refractive Index [1]: 1.443 | Density [2]: 1.36 g/mL

1-vinyl-3-nonylimidazolium bis[(trifluoromethane)sulfonyl]imidate [nvim-NTf2]
Refractive Index [1]: 1.445 | Density [2]: 1.28 g/mL

CCCCCCCCC[n+]1ccn(C)c1.O=S(=O)([N-]S(=O)(=O)C(F)(F)F)C(F)(F)F [nmim-NTf2]
ΔHAV ([4]; probe 1-Octanol, 35-75° C.): -14.168 kcal/mol | ΔSAV ([4]; probe 1-Octanol, 35-75° C.): −151 J/mol*K | ΔG ([4]; probe 1-Octanol, 50° C.): -2.505 kcal/mol | ΔHAV [4, 7]: -13.779 kcal/mol | ΔSAV [4, 7]: −134 J/mol*K | ΔG ([4]; probe 2-Chloroaniline, 70° C.): -2.7892 kcal/mol | ΔHAV ([4]; probe Decane, 35-75° C.): -10.848 kcal/mol | ΔSAV ([4]; probe Decane, 35-75° C.): −127 J/mol*K | ΔG ([4]; probe Decane, 50° C.): -1.039 kcal/mol | ΔHAV [4, 8]: -11.119 kcal/mol | ΔSAV [4, 8]: −121 J/mol*K | ΔG ([4]; probe Ethyl Phenyl Ether, 50° C.): -1.773 kcal/mol | ΔHAV ([4]; probe Fluorophenol, 40-100° C.): -11.497 kcal/mol | ΔSAV ([4]; probe Fluorophenol, 40-100° C.): −121 J/mol*K | ΔG ([4]; probe Fluorophenol, 70° C.): -1.573 kcal/mol | ΔHAV ([4]; probe Naphthalene, 40-100° C.): -12.856 kcal/mol | ΔSAV ([4]; probe Naphthalene, 40-100° C.): −127 J/mol*K | ΔG ([4]; probe Naphthalene, 70° C.): -2.44 kcal/mol | ΔHAV ([4]; probe Nitropropane, 27-50° C.): -9.3236 kcal/mol | ΔSAV ([4]; probe Nitropropane, 27-50° C.): −109 J/mol*K | ΔG ([4]; probe Nitropropane, 35° C.): -1.296 kcal/mol | a (hydrogen bond basicity) ([5]; 40° C.): 1.91 | b (hydrogen bond acidity) ([5]; 40° C.): 0.36 | c (interaction parameter table, constant) ([5]; 40° C.): −2.98 | l (dispersion forces) ([5]; 40° C.): 0.75 | r (interaction via nonbonding and π-electrons) ([5]; 40° C.): 0 | s (dipolarity/polarizability) ([5]; 40° C.): 1.62 | a (hydrogen bond basicity) ([5]; 70° C.): 1.57 | b (hydrogen bond acidity) ([5]; 70° C.): 0.18 | c (interaction parameter table, constant) ([5]; 70° C.): −3.05 | l (dispersion forces) ([5]; 70° C.): 0.63 | r (interaction via nonbonding and π-electrons) ([5]; 70° C.): 0 | s (dipolarity/polarizability) ([5]; 70° C.): 1.54 | a (hydrogen bond basicity) ([5]; 100° C.): 1.43 | b (hydrogen bond acidity) ([5]; 100° C.): 0.12 | c (interaction parameter table, constant) ([5]; 100° C.): −3.47 | l (dispersion forces) ([5]; 100° C.): 0.60 | r (interaction via nonbonding and π-electrons) ([5]; 100° C.): 0 | s (dipolarity/polarizability) ([5]; 100° C.): 1.52 | Refractive Index [1]: 1.434 | Density [2]: 1.30 g/mL

C=Cn1cc[n+](CCCCCCCCCCC[n+]2ccn(C=C)c2)c1.O=S(=O)([N-]S(=O)(=O)C(F)(F)F)C(F)(F)F.O=S(=O)([N-]S(=O)(=O)C(F)(F)F)C(F)(F)F [C11(vim)2-NTf2]
Refractive Index [1]: 1.457 | Density [2]: 1.44 g/mL

CCCC[N+]1(C)CCCC1.O=S(=O)([N-]S(=O)(=O)C(F)(F)F)C(F)(F)F [BMPY—NTf2, 1-butyl-1-methylpyrrolidinium bis[(trifluoromethylsulfonyl)imide]]
a (hydrogen bond basicity) ([6]; 40° C.): 2.08 | b (hydrogen bond acidity) ([6]; 40° C.): 0.16 | c (interaction parameter table, constant) ([6]; 40° C.): −2.78 | l (dispersion forces) ([6]; 40° C.): 0.68 | r (interaction via nonbonding and π-electrons) ([6]; 40° C.): 0 | s (dipolarity/polarizability) ([6]; 40° C.): 1.69 | a (hydrogen bond basicity) ([6]; 70° C.): 1.78 | b (hydrogen bond acidity) ([6]; 70° C.): 0 | c (interaction parameter table, constant) ([6]; 70° C.): −2.80 | l (dispersion forces) ([6]; 70° C.): 0.56 | r (interaction via nonbonding and π-electrons) ([6]; 70° C.): 0 | s (dipolarity/polarizability) ([6]; 70° C.): 1.53 | a (hydrogen bond basicity) ([6]; 100° C.): 1.55 | b (hydrogen bond acidity) ([6]; 100° C.): 0 | c (interaction parameter table, constant) ([6]; 100° C.): −2.92 | l (dispersion forces) ([6]; 100° C.): 0.48 | r (interaction via nonbonding and π-electrons) ([6]; 100° C.): 0 | s (dipolarity/polarizability) ([6]; 100° C.): 1.44

C=Cn1cc[n+](CCCCCCCCCCCC[n+]2ccn(C=C)c2)c1.O=S(=O)([N-]S(=O)(=O)C(F)(F)F)C(F)(F)F.O=S(=O)([N-]S(=O)(=O)C(F)(F)F)C(F)(F)F [C12(vim)2-NTf2]
Refractive Index [1]: 1.458 | Density [2]: 1.42 g/mL

1-vinyl-3-dodecylimidazolium bis[(trifluoromethane)sulfonyl]imidate [dvim-NTf2]
Refractive Index [1]: 1.448 | Density [2]: 1.23 g/mL

C[N+]1(CCC[N+]2(C)CCCC2)CCCC1.O=S(=O)([N-]S(=O)(=O)C(F)(F)F)C(F)(F)F.O=S(=O)([N-]S(=O)(=O)C(F)(F)F)C(F)(F)F [C3(mpy)2-NTf2, 1,3-di(methylpyrrolidinium)propane di-bis[(trifluoromethyl)sulfonyl]imidate]
Miscibility with Heptane: Immiscible | Miscibility with Water: Immiscible
